# Results reported in patent publication US20100261711A1, “SELECTIVE ANTICONVULSANT AGENTS AND THEIR USES” (WiSys Technology Foundation, priority 2009, published 2010).
# Read-outs that look alike come from different tables or passages of the source.
# Assays:
# [1] = target: T1, GABAA/α6 (α6β3γ2 GABAA receptors) (Homo sapiens, UniProt P18507+Q16445); assay: Competitive binding assay, [3H]flunitrazepam
# T1 construct: expressed in transfected cells
# Procedure: (§1) The GABAA subunit selectivity of several compounds prepared as described above were determined using competitive binding assays. […] Membranes were harvested with a Brandel cell harvester followed by three ice-cold washes onto polyethyleneimine-pretreated (0.3%) Whatman GF/C filters. Filters were dried overnight and then soaked in Ecoscint, a liquid scintillation cocktail (National Diagnostics; Atlanta, Ga.). Bound radioactivity was quantified by liquid scintillation counting. Membrane protein concentrations were determined using an assay kit from Bio-Rad (Hercules, Calif.) with bovine serum albumin as the standard.
# [2] = target: T2, GABAA/α4 (α4β3γ2 GABAA receptors) (Homo sapiens, UniProt P18507+P48169); assay: Competitive binding assay, [3H]flunitrazepam
# T2 construct: expressed in transfected cells
# Procedure: as §1
# [3] = test system: minimal motor deficit (ataxia, abnormal gait); assay: Toxicity (TOX), minimal motor deficit, rats; assay type: in vivo; settings: Rat PO, 50 mg/kg
# Procedure: (§2) The benzodiazepine derivative compounds selective for GABAa receptor subunits were tested for the ability to suppress seizures in several standard rat and mouse models of epilepsy. […] The standard models incorporated into anticonvulsant screening include the maximal electroshock test (MES), the subcutaneous Metrazol test (scMet), and evaluations of toxicity (TOX). The data for each condition is presented as a ratio of either the number of animals protected or toxic (loss of locomotor activity) over the number of animals tested at a given time point and dose.
# (§3) To assess a compound's undesirable side effects (toxicity), animals are monitored for overt signs of impaired neurological or muscular function. […] When a mouse is placed on a rod that rotates at a speed of 6 rpm, the animal can maintain its equilibrium for long periods of time. The animal is considered toxic if it falls off this rotating rod three times during a 1-min period. In rats, minimal motor deficit is indicated by ataxia, which is manifested by an abnormal, uncoordinated gait. Rats used for evaluating toxicity are examined before the test drug is administered, since individual animals may have peculiarities in gait, equilibrium, placing response, etc., which might be attributed erroneously to the test substance.
# [4] = test system: Metrazol-induced clonic seizures; assay: Subcutaneous Metrazol test (scMet), mice; assay type: in vivo; settings: Mice IP
# Procedure: as §2
# (§4) Subcutaneous injection of the convulsant Metrazol produces clonic seizures in laboratory animals. […] Animals are pretreated with various doses of the test compound (in a similar manner to the MES test, although a dose of 50 mg/kg (po) is the standard for Test 2 scMet). At the previously determined TPE of the test compound, the dose of Metrazol which will induce convulsions in 97% of animals (CD97: 85 mg/kg mice) is injected into a loose fold of skin in the midline of the neck. […] An episode of clonic spasms, approximately 3-5 seconds, of the fore and/or hindlimbs, jaws, or vibrissae is taken as the endpoint.
# 6 Hz psychomotor seizure = assay: Minimal clonic seizure (6 Hz) test; assay type: in vivo; settings: Mice IP; for ED50: Mus musculus, ip, 1 h, 1 Hr, read-out: ED50 (6 Hz)
# Source text: Like the maximal electroshock (MES) test, the minimal clonic seizure (6 Hz) test is used to assess a compound's efficacy against electrically-induced seizures but uses a lower frequency (6 Hz) and longer duration of stimulation (3 s). Test compounds are pre-administered to mice via ip injection. […] Untreated mice will display seizures characterized by a minimal clonic phase followed by stereotyped, automatistic behaviors described originally as being similar to the aura of human subjects with partial seizures. Animals not displaying this behavior are considered protected (Table 10).
# [5] = test system: minimal muscular or neurological impairment; assay: Toxicity (TOX), rotorod procedure, mice; assay type: in vivo; settings: Mice IP
# Procedure: as §2, §3
# MES-induced seizures = assay: Maximal electroshock test (MES), mice; assay type: in vivo; settings: Mice IP
# Procedure: as §2
# The MES is a model for generalized tonic-clonic seizures and provides an indication of a compound's ability to prevent seizure spread when all neuronal circuits in the brain are maximally active. These seizures are highly reproducible and are electrophysiologically consistent with human seizures. For all tests based on MES convulsions, 60 Hz of alternating current (50 mA in mice, 150 in rats) is delivered for by corneal electrodes which have been primed with an electrolyte solution containing an anesthetic agent (0.5% tetracaine HCL). For Test 1, mice are tested at various intervals following doses of 30, 100 and 300 mg/kg of test compound given by ip injection of a volume of 0.01 mL/g. In Test 2, rats are tested after a dose of 30 mg/kg (po) in a volume of 0.04 mL/g. Test 8 uses varying doses administered via i.p. injection, again in a volume of 0.04 ml/g. […] In Antiepileptic Drugs, Levy, R. H. M., Meldrum, B. S., Eds.; Raven Press: New York, pp 99-110, 1995b.).
# [6] = test system: Metrazol-induced clonic seizures; assay: Subcutaneous Metrazol test (scMet), rats; assay type: in vivo; settings: Rat PO, 50 mg/kg
# Procedure: as §2, §4
# [7] = target: T3, GABAA/α3 (α3β3γ2 GABAA receptors) (Homo sapiens, UniProt P18507+P34903); assay: Competitive binding assay, [3H]flunitrazepam
# T3 construct: expressed in transfected cells
# Procedure: as §1
# [8] = target: T4, GABAA/α5 (α5β3γ2 GABAA receptors) (Homo sapiens, UniProt P18507+P31644); assay: Competitive binding assay, [3H]flunitrazepam
# T4 construct: expressed in transfected cells
# Procedure: as §1
# [9] = target: T5, GABAA/α2 (α2β3γ2 GABAA receptors) (Homo sapiens, UniProt P18507+P47869); assay: Competitive binding assay, [3H]flunitrazepam
# T5 construct: expressed in transfected cells
# Procedure: as §1
# [10] = target: T6, GABAA/α1 (α1β3γ2 GABAA receptors) (Homo sapiens, UniProt P14867+P18507); assay: Competitive binding assay, [3H]flunitrazepam
# T6 construct: expressed in transfected cells
# Procedure: as §1
# [11] = Binding Affinity at GABAA/α3, αxβ3γ2, [3H]flunitrazepam competition
# [12] = Binding Affinity at GABAA/α5, αxβ3γ2, [3H]flunitrazepam competition
# [13] = Binding Affinity at GABAA/α2, αxβ3γ2, [3H]flunitrazepam competition
# [14] = Binding Affinity at GABAA/α1, αxβ3γ2, [3H]flunitrazepam competition
structure (smiles),measurement,setting,value
"C#Cc1ccc2c(c1)C(c1ccccc1F)=NC(C)c1c(C(=O)OCC)ncn1-2 (single isomer, unassigned) [SH-053-2′F-R-CH3, 8-Ethynyl-6-(2-fluorophenyl)-4-methyl-4H-2,5,10b-triaza-benzo[e]azulene-3-carboxylic acid ethyl ester]",Ki,[1],> 5000 nM
same,Ki,[2],> 5000 nM
"C#Cc1ccc2c(c1)C(c1ccccc1F)=NC(C)c1c(C(=O)OCC)ncn1-2 (single isomer, unassigned) [SH-053-2′F-S-CH3, 8-Ethynyl-6-(2-fluorophenyl)-4-methyl-4H-2,5,10b-triazabenzo[e]azulene-3-carboxylic acid ethyl ester]",Ki,[1],> 5000 nM
same,Ki,[2],> 5000 nM
same,"Tox, animals toxic/tested",[3]; 0.5 h,0/4
same,"Tox, animals toxic/tested",[3]; 1.0 h,0/4
same,"Tox, animals toxic/tested",[3]; 2.0 h,0/4
same,"Tox, animals toxic/tested",[3]; 4.0 h,0/4
same,"Tox, animals toxic/tested",[3]; […],0/4
same,"scMet, animals protected/tested","[4]; 30 mg/kg, 0.5 Hr",0/1
same,"scMet, animals protected/tested","[4]; 30 mg/kg, 4.0 Hr",0/1
same,"scMet, animals protected/tested","[4]; 100 mg/kg, 0.5 hr",2/5
same,"scMet, animals protected/tested","[4]; 100 mg/kg, 4.0 hr",0/1
same,"scMet, animals protected/tested","[4]; 300 mg/kg, 0.5 Hr",1/1
same,"scMet, animals protected/tested","[4]; 300 mg/kg, 4.0 Hr",0/1
same,"6 Hz Time to Peak Effect, protected/tested","6 Hz psychomotor seizure; 30 mg/kg, 22 mA, 1.0 Hr",6/8
same,"6 Hz Time to Peak Effect, protected/tested","6 Hz psychomotor seizure; 30 mg/kg, 22 mA, 2.0 Hr",2/8
same,"6 Hz Time to Peak Effect, protected/tested","6 Hz psychomotor seizure; 50 mg/kg, 22 mA, 0.5 Hr",1/4
same,"6 Hz Time to Peak Effect, protected/tested","6 Hz psychomotor seizure; 50 mg/kg, 22 mA, 1.0 Hr",3/4
same,"6 Hz Time to Peak Effect, protected/tested","6 Hz psychomotor seizure; 50 mg/kg, 22 mA, 2.0 Hr",3/4
same,"6 Hz Time to Peak Effect, protected/tested","6 Hz psychomotor seizure; 100 mg/kg, 22 mA, 0.25 Hr",2/4
same,"6 Hz Time to Peak Effect, protected/tested","6 Hz psychomotor seizure; 100 mg/kg, 22 mA, 0.5 Hr",4/4
same,"6 Hz Time to Peak Effect, protected/tested","6 Hz psychomotor seizure; 100 mg/kg, 22 mA, 1.0 Hr",4/4
same,"6 Hz Time to Peak Effect, protected/tested","6 Hz psychomotor seizure; 100 mg/kg, 22 mA, 2.0 Hr",4/4
same,"6 Hz Time to Peak Effect, protected/tested","6 Hz psychomotor seizure; 100 mg/kg, 22 mA, 4.0 Hr",2/4
same,"6 Hz Time to Peak Effect, protected/tested","6 Hz psychomotor seizure; 100 mg/kg, 32 mA, 0.25 Hr",2/4
same,"6 Hz Time to Peak Effect, protected/tested","6 Hz psychomotor seizure; 100 mg/kg, 32 mA, 0.5 Hr",1/4
same,"6 Hz Time to Peak Effect, protected/tested","6 Hz psychomotor seizure; 100 mg/kg, 32 mA, 1.0 Hr",4/4
same,"6 Hz Time to Peak Effect, protected/tested","6 Hz psychomotor seizure; 100 mg/kg, 32 mA, 2.0 Hr",2/4
same,"6 Hz Time to Peak Effect, protected/tested","6 Hz psychomotor seizure; 100 mg/kg, 32 mA, 4.0 Hr",2/4
same,ED50,6 Hz psychomotor seizure; 22 mA,14.2 mg/kg
same,ED50,6 Hz psychomotor seizure; 32 mA,71.2 mg/kg
same,"TOX (Rotorod Test), animals toxic/tested","[5]; 30 mg/kg, 0.5 Hr",0/4
same,"TOX (Rotorod Test), animals toxic/tested","[5]; 30 mg/kg, 4.0 Hr",0/2
same,"TOX (Rotorod Test), animals toxic/tested","[5]; 100 mg/kg, 0.5 hr",1/8
same,"TOX (Rotorod Test), animals toxic/tested","[5]; 100 mg/kg, 4.0 hr",0/4
same,"TOX (Rotorod Test), animals toxic/tested","[5]; 300 mg/kg, 0.5 Hr",2/4
same,"TOX (Rotorod Test), animals toxic/tested","[5]; 300 mg/kg, 4.0 Hr",0/2
same,"MES, animals protected/tested","MES-induced seizures; 30 mg/kg, 0.5 Hr",0/1
same,"MES, animals protected/tested","MES-induced seizures; 30 mg/kg, 4.0 Hr",0/1
same,"MES, animals protected/tested","MES-induced seizures; 100 mg/kg, 0.5 hr",0/3
same,"MES, animals protected/tested","MES-induced seizures; 100 mg/kg, 4.0 hr",0/3
same,"MES, animals protected/tested","MES-induced seizures; 300 mg/kg, 0.5 Hr",0/1
same,"MES, animals protected/tested","MES-induced seizures; 300 mg/kg, 4.0 Hr",0/1
same,"scMet, animals protected/tested",[6]; 0.5 h,0/4
same,"scMet, animals protected/tested",[6]; 1.0 h,0/4
same,"scMet, animals protected/tested",[6]; 2.0 h,1/4
same,"scMet, animals protected/tested",[6]; 4.0 h,0/4
same,"scMet, animals protected/tested",[6]; […],1/4
"C#Cc1ccc2c(c1)C(c1ccccc1)=NC(C)c1c(C(=O)OCC)ncn1-2 (single isomer, unassigned) [SH-053-R-CH3, 8-Ethynyl-4-methyl-6-phenyl-4H-2,5,10b-triaza-benzo[e]azulene-3-carboxylic acid ethyl ester]",Ki,[7]; [11],1180 nM
same,Ki,"[1]; read-out: Binding Affinity at GABAA/α6, αxβ3γ2, [3H]flunitrazepam competition",> 5000 nM
same,Ki,"[2]; read-out: Binding Affinity at GABAA/α4, αxβ3γ2, [3H]flunitrazepam competition",> 5000 nM
same,Ki,[8]; [12],949 nM
same,Ki,[9]; [13],2380 nM
same,Ki,[10]; [14],2030 nM
"C#Cc1ccc2c(c1)C(c1ccccc1)=NC(C)c1c(C(=O)OCC)ncn1-2 (single isomer, unassigned) [SH-053-S-CH3, 8-Ethynyl-4-methyl-6-phenyl-4H-2,5,10b-triaza-benzo[e]azulene-3-carboxylic acid ethyl ester]",Ki,[7]; [11],1250 nM
same,Ki,[1],> 5000 nM
same,Ki,[2],> 5000 nM
same,Ki,[8]; [12],206 nM
same,Ki,[9]; [13],1260 nM
same,Ki,[10]; [14],1670 nM
"CN1C(=O)CN=C(c2ccccc2)c2cc(Cl)ccc21 [Diazepam, reference compound]",Ki,[1],> 1000 nM
same,Ki,[2],> 1000 nM
"C#Cc1ccc2c(c1)C(c1cccs1)=NCc1c(C(=O)OCC)ncn1-2 [JC 221 (76), Ethyl 8-acetyleno-6-(2′-thienyl)-4H-benzo[f]imidazo[1,5-a][1,4]diazepine-3-carboxylate]",Ki,[7]; [11],182 nM
same,Ki,[1],362 nM
same,Ki,[8]; [12],14.3 nM
same,Ki,"[9]; αxβ3γ2, [3H]flunitrazepam competition, read-out: Binding Affinity at GABAA/α2",35 nM
same,Ki,"[10]; αxβ3γ2, [3H]flunitrazepam competition, read-out: Binding Affinity at GABAA/α1",146 nM
same,"scMet, animals protected/tested","[4]; 100 mg/kg, 0.5 hr",0/1
same,"scMet, animals protected/tested","[4]; 100 mg/kg, 4.0 hr",0/1
same,"TOX (Rotorod Test), animals toxic/tested","[5]; 100 mg/kg, 0.5 hr",0/8
same,"TOX (Rotorod Test), animals toxic/tested","[5]; 100 mg/kg, 4.0 hr",0/4
same,"MES, animals protected/tested","MES-induced seizures; 100 mg/kg, 0.5 hr",0/3
same,"MES, animals protected/tested","MES-induced seizures; 100 mg/kg, 4.0 hr",0/3
"C[Si](C)(C)C#Cc1ccc2c(c1)C(c1ccccc1F)=NCc1c(C(=O)OCC(F)(F)F)ncn1-2 [JYI-53, Trifluoroethyl-8-trimethylsilylacetylenyl-6-(2′-fluorophenyl)-4H-benzo[f]imidazo[1,5-a][1,4]diazepine-3-carboxylate]",Ki,"[7]; αxβ3γ2, [3H]flunitrazepam competition, read-out: Binding Affinity at GABAA/α3",183 nM
same,Ki,"[1]; αxβ3γ2, [3H]flunitrazepam competition, read-out: Binding Affinity at GABAA/α6",3650 nM
same,Ki,"[8]; αxβ3γ2, [3H]flunitrazepam competition, read-out: Binding Affinity at GABAA/α5",133 nM
same,Ki,[9]; [13],40.4 nM
same,Ki,[10]; [14],77.4 nM
